{"source": "patent US8492328B2", "about": "“Biomarkers and methods for determining sensitivity to insulin growth factor-1 receptor modulators” (Bristol-Myers Squibb Company, priority 2007, dated 2013)", "type_in_all_cases": "cell-based, human", "key": {"H2052": {"system": "H2052", "assay": "In vitro cellular proliferation assay ([3H]-thymidine incorporation)", "settings": "H2052 (Melignant Pleural Mesothelioma)", "protocol": "(§1) All pediatric sarcoma and neuroblastoma cell lines were obtained from Dr. Lee Helman at NIH. All cell lines were grown in RPMI medium supplemented with Glutamax (Gibco/Invitrogen #61870-036), 10% inactivated fetal bovine serum (Gibco/Invitrogen #16140-071), 10 mM Hepes, penicillin and streptomycin.\n(§2) Cells were plated at an optimized density for each cell line per well in 96-well microtiter Falcon plates, incubated overnight, and then exposed to a serial dilution of drug. After 72 hours incubation with drug at 37° C., cells were pulsed with 4 μCi/ml [6-3H] thymidine (Amersham Pharmacia Biotech, UK) for 3 hours, trypsinized, harvested onto UniFilter-96, GF/B plates (PerkinElmer, Boston, Mass.) and scintillation was measured on a TopCount NXT (Packard, Conn.). Results were expressed as an IC50, which is the drug concentration required to inhibit cell proliferation by 50% to that of untreated control cells. The mean IC50 and standard deviation (SD) from multiple tests for each cell line were calculated."}, "LAN-1": {"system": "LAN-1", "assay": "In vitro cellular proliferation assay ([3H]-thymidine incorporation)", "settings": "LAN-1 (Neuroblastoma)", "protocol": "as §1, §2"}, "TC32": {"system": "TC32", "assay": "In vitro cellular proliferation assay ([3H]-thymidine incorporation)", "settings": "TC32 (Ewing)", "protocol": "as §1, §2"}, "SW-684": {"system": "SW-684", "assay": "In vitro cellular proliferation assay ([3H]-thymidine incorporation)", "settings": "SW-684 (Fibrosarcoma)", "protocol": "as §1, §2"}, "HT1080/S": {"system": "HT1080/S", "assay": "In vitro cellular proliferation assay ([3H]-thymidine incorporation)", "settings": "HT1080/S (Fibrosarcoma)", "protocol": "as §1, §2"}, "CTR": {"system": "CTR", "assay": "In vitro cellular proliferation assay ([3H]-thymidine incorporation)", "protocol": "as §1, §2"}, "Rh41 cells": {"system": "Rh41 cells", "assay": "Gene expression profiling of cells with compound 1 treatment"}}, "data": [{"smiles": "Cc1cc(N2CCOCC2)cc2[nH]c(-c3c(NC[C@@H](O)c4cccc(Cl)c4)cc[nH]c3=O)nc12", "note": "[Compound 1, (S)-4-(2-(3-chlorophenyl)-2-hydroxyethylamino)-3-(4-methyl-6-morpholino-1H-benzo[d]imidazol-2-yl)-pyridin-2(1-H)-one]", "values": [{"measurement": "Sensitivity Classification", "setting": "H2052", "value": "R (“R” means resistant to the corresponding compounds.)"}, {"measurement": "IC50", "setting": "H2052; Homo sapiens, NCI-H2052, 72 hours with drug, read-out: IC50", "value": 403, "unit": "nM"}, {"measurement": "IC50", "setting": "LAN-1; Homo sapiens, LAN1, 72 hours with drug, read-out: IC50", "value": 136, "unit": "nM"}, {"measurement": "Sensitivity Classification", "setting": "LAN-1", "value": "S (“S” means sensitive)"}, {"measurement": "IC50", "setting": "TC32; Homo sapiens, TC-32, 72 hours with drug, read-out: IC50", "value": 55, "unit": "nM"}, {"measurement": "Sensitivity Classification", "setting": "TC32", "value": "S (“S” means sensitive)"}, {"measurement": "IC50", "setting": "SW-684; Homo sapiens, SW684, 72 hours with drug, read-out: IC50", "value": 5000, "unit": "nM"}, {"measurement": "Sensitivity Classification", "setting": "SW-684", "value": "R (“R” means resistant to the corresponding compounds.)"}, {"measurement": "Sensitivity Classification", "setting": "HT1080/S", "value": "R (“R” means resistant to the corresponding compounds.)"}, {"measurement": "IC50", "setting": "HT1080/S; Homo sapiens, HT-1080, 72 hours with drug, read-out: IC50", "value": 1410, "unit": "nM"}, {"measurement": "sensitivity/resistance classification in words", "setting": "CTR; CTR", "value": "resistant"}, {"measurement": "Sensitivity Classification", "setting": "CTR; CTR (Rhabdomyosarcoma)", "value": "R (“R” means resistant to the corresponding compounds.)"}, {"measurement": "IC50", "setting": "CTR; Homo sapiens, CTR (Rhabdomyosarcoma), 72 hours with drug, read-out: IC50", "value": 370, "unit": "nM"}, {"measurement": "Ki-67 expression", "setting": "Rh41 cells; compound 1 treated cells", "value": "Remarkable but not complete decrease"}, {"measurement": "expression of programmed cell death 4 (PDCD4)", "setting": "Rh41 cells; sensitive Rh41 cells", "value": "up-regulated"}, {"measurement": "expression level of survivin", "setting": "Rh41 cells; sensitive Rh41 cells, especially at 36 and 72 hours", "value": "significantly reduced"}, {"measurement": "genes with significant expression changes upon the drug treatment", "setting": "Rh41 cells; sensitive cell Rh41", "value": 30, "unit": "%"}]}]}
